Measured values from patent US8138168B1 (Takeda Pharmaceutical Company Limited, priority 2007, dated 2012).

Target: T1, Recombinant human renin (Homo sapiens, UniProt P00797)
T1 construct: isolate the active form (residues 67-406); made in house; host or cells: FreeStyle 293-F cells (transient expression of pcDNA3.1(+)/hREN)
T1 sequence (P00797 67-406): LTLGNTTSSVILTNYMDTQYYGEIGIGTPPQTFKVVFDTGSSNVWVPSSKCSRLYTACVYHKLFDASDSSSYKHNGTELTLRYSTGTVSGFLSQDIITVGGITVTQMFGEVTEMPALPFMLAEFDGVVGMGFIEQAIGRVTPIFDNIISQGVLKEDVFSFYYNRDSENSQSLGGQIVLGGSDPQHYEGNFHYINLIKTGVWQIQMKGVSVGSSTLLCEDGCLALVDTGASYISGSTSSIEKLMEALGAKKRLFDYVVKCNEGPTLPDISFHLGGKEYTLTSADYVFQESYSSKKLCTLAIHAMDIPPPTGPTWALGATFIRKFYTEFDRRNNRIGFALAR
Assay: In vitro enzymatic activity assay of renin inhibitors (fluorogenic peptide substrate)
Assay type: biochemical
Conditions: read-out: IC50 of Exemplified Compounds Against Renin
Outline: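 Enzyme: recombinant human renin, 3 nM final, 10 min compound pre-incubation at 37 °C; buffer 50 mM Hepes pH 7.4 with 0.1 mg/mL BSA or extra 2% BSA; 5% DMSO.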

SMILES	IC50
COCCCn1c([C@@H]2CCCN(C(=O)C[C@H](N)Cc3ccc(-c4ccc(C(=O)NC5CC5)cc4)cc3)C2)nc2ccccc21 [Compound 134, 4′-((R)-2-amino-4-((R)-3-(1-(3-methoxypropyl)-1H-benzo[d]imidazol-2-yl)piperidin-1-yl)-4-oxobutyl)-N-cyclopropylbiphenyl-4-carboxamide]	< 100 nM
COCCCn1c(C2CCCN(C(=O)C[C@H](N)Cc3ccc4ccccc4c3)C2)nc2ccc(OC)nc21 (stereo partly drawn) [Compound 100, (R)-3-amino-1-(3-(5-methoxy-3-(3-methoxypropyl)-3H-imidazo[4,5-b]pyridin-2-yl)piperidin-1-yl)-4-(naphthalen-2-yl)butan-1-one]	100 to 1000 nM
COCCCn1c([C@@H]2CCCN(C(=O)C[C@H](N)Cc3ccc(-c4cccnc4F)cc3)C2)nc2ccccc21 [Compound 151, (R)-3-amino-4-(4-(2-fluoropyridin-3-yl)phenyl)-1-((R)-3-(1-(3-methoxypropyl)-1H-benzo[d]imidazol-2-yl)piperidin-1-yl)butan-1-one]	< 100 nM
NC(=O)CCn1c([C@@H]2CCCN(C(=O)C[C@H](N)Cc3ccc(-c4ccc5c(c4)OCCO5)cc3)C2)nc2ccccc21 [Compound 484, 3-(2-((R)-1-((R)-3-amino-4-(4-(2,3-dihydrobenzo[b][1,4]dioxin-6-yl)phenyl)butanoyl)piperidin-3-yl)-1H-benzo[d]imidazol-1-yl)propanamide]	> 1000 nM
COCCCn1c([C@@H]2CCCN(C(=O)[C@@H]3CN(C(=O)c4cccc(OC)c4)C[C@H]3N)C2)nc2ccccc21 [Compound 421, ((3R,4S)-4-amino-1-(3-methoxybenzoyl)pyrrolidin-3-yl)((R)-3-(1-(3-methoxypropyl)-1H-benzo[d]imidazol-2-yl)piperidin-1-yl)methanone]	> 1000 nM
COCCCn1c([C@@H]2CCCN(C(=O)[C@@H]3CN(S(=O)(=O)c4ccc5c(c4)CCO5)C[C@H]3N)C2)nc2ccccc21 [Compound 355, ((3R,4S)-4-amino-1-(2,3-dihydrobenzofuran-5-ylsulfonyl)pyrrolidin-3-y1)((R)-3-(1-(3-methoxypropyl)-1H-benzo[d]imidazol-2-yl)piperidin-1-yl)methanone]	100 to 1000 nM
COCCCn1c([C@@H]2CCCN(C(=O)C[C@H](N)Cc3ccc(-c4ccc5c(c4)OCCN5C)cc3)C2)nc2c(F)cccc21 [Compound 453, (R)-3-amino-1-((R)-3-(4-fluoro-1-(3-methoxypropyl)-1H-benzo[d]imidazol-2-yl)piperidin-1-yl)-4-(4-(4-methyl-3,4-dihydro-2H-benzo[b][1,4]oxazin-7-yl)phenyl)butan-1-one]	< 100 nM
COCCCn1c([C@@H]2CCCN(C(=O)C[C@H](N)Cc3ccc4ccccc4c3)C2)nc2cccc(Cl)c21 [Compound 97, (R)-3-amino-1-((R)-3-(7-chloro-1-(3-methoxypropyl)-1H-benzo[d]imidazol-2-yl)piperidin-1-yl)-4-(naphthalen-2-yl)butan-1-one]	< 100 nM
CN1CCOc2cc(-c3ccc(C[C@@H](N)CC(=O)N4CCC[C@@H](c5nc6ccccc6n5CCC(N)=O)C4)cc3)ccc21 [Compound 447, 3-(2-((R)-1-((R)-3-amino-4-(4-(4-methyl-3,4-dihydro-2H-benzo[b][1,4]oxazin-7-yl)phenyl)butanoyl)piperidin-3-yl)-1H-benzo[d]imidazol-1-yl)propanamide]	100 to 1000 nM
COCCCn1c([C@@H]2CCCN(C(=O)C[C@H](N)CNC(=O)NC3CCCCC3)C2)nc2ccccc21 [Compound 323, 1-((S)-2-amino-4-((R)-3-(1-(3-methoxypropyl)-1H-benzo[d]imidazol-2-yl)piperidin-1-yl)-4-oxobutyl)-3-cyclohexylurea]	> 1000 nM
CC(=O)NCCn1c([C@@H]2CCCN(C(=O)C[C@H](N)Cc3ccc(-c4ccc5c(c4)NC(=O)C5)cc3)C2)nc2ccccc21 [Compound 466, N-(2-(2-((R)-1-((R)-3-amino-4-(4-(2-oxoindolin-6-yl)phenyl)butanoyl)piperidin-3-yl)-1H-benzo[d]imidazol-1-yl)ethyl)acetamide]	100 to 1000 nM
COCCCn1c([C@@H]2CCCN(C(=O)C[C@H](N)Cc3ccc(-c4ccc(C(=O)NCCO)cc4Cl)cc3)C2)nc2ccccc21 [Compound 192, 4′-((R)-2-amino-4-((R)-3-(1-(3-methoxypropyl)-1H-benzo[d]imidazol-2-yl)piperidin-1-yl)-4-oxobutyl)-2-chloro-N-(2-hydroxyethyl)biphenyl-4-carboxamide]	< 100 nM
COCCCn1c([C@@H]2CCCN(C(=O)C[C@H](N)Cc3ccc(-c4ccc(N5CCOCC5)nc4)cc3)C2)nc2ccccc21 [Compound 135, (R)-3-amino-1-((R)-3-(1-(3-methoxypropyl)-1H-benzo[d]imidazol-2-yl)piperidin-1-yl)-4-(4-(6-morpholinopyridin-3-yl)phenyl)butan-1-one]	< 100 nM
COCCCn1c([C@@H]2CCCN(C(=O)C[C@H](N)CNC(=O)Nc3ccc4c(c3)CCC4)C2)nc2ccccc21 [Compound 266, 1-((S)-2-amino-4-((R)-3-(1-(3-methoxypropyl)-1H-benzo[d]imidazol-2-yl)piperidin-1-yl)-4-oxobutyl)-3-(2,3-dihydro-1H-inden-5-yl)urea]	100 to 1000 nM
COCCCn1c([C@@H]2CCCN(C(=O)C[C@H](N)Cc3ccc(-c4ccc(S(C)(=O)=O)cc4)cc3)C2)nc2ccccc21 [Compound 165, (R)-3-amino-1((R)-3-(1-(3-methoxypropyl)-1H-benzo[d]imidazol-2-yl)piperidin-1-yl)-4-(4′-(methylsulfonyl)biphenyl-4-yl)butan-1-one]	< 100 nM
COCCCn1c([C@@H]2CCCN(C(=O)C[C@@H](N)COc3ccccc3C(=O)OC)C2)nc2ccccc21 [Compound 432, methyl 2-((R)-2-amino-4-((R)-3-(1-(3-methoxypropyl)-1H-benzo[d]imidazol-2-yl)piperidin-1-yl)-4-oxobutoxy)benzoate]	> 1000 nM
COCCCn1c([C@@H]2CCCN(C(=O)C[C@H](N)Cc3ccc(F)c(F)c3)C2)nc2ccccc21 [Compound 76, (R)-3-amino-4-(3,4-difluorophenyl)-1((R)-3-(1-(3-methoxypropyl)-1H-benzo[d]imidazol-2-yl)piperidin-1-yl)butan-1-one]	100 to 1000 nM
COCCCn1c([C@@H]2CCCN(C(=O)[C@@H]3CN(C(=O)c4ccccc4OC)C[C@H]3N)C2)nc2ccccc21 [Compound 387, ((3R,4S)-4-amino-1-(2-methoxybenzoyl)pyrrolidin-3-yl)((R)-3-(1-(3-methoxypropyl)-1H-benzo[d]imidazol-2-yl)piperidin-1-yl)methanone]	> 1000 nM

The next lines start with the values.

IC50	SMILES
100 to 1000 nM	NC(=O)CCn1c([C@@H]2CCCN(C(=O)C[C@H](N)Cc3ccc(-c4ccncc4)cc3)C2)nc2ccccc21 [Compound 488, 3-(2-((R)-1-((R)-3-amino-4-(4-(pyridin-4-yl)phenyl)butanoyl)piperidin-3-yl)-1H-benzo[d]imidazol-1-yl)propanamide]
100 to 1000 nM	COCCCn1c([C@@H]2CCCN(C(=O)[C@@H]3CN(S(=O)(=O)c4cccc(-c5csc(C)n5)c4)C[C@H]3N)C2)nc2ccccc21 [Compound 364, ((3R,4S)-4-amino-1-(3-(2-methylthiazol-4-yl)phenylsulfonyl)pyrrolidin-3-yl)((R)-3-(1-(3-methoxypropyl)-1H-benzo[d]imidazol-2-yl)piperidin-1-yl)methanone]
100 to 1000 nM	COCCCn1c([C@@H]2CCCN(C(=O)C[C@H](N)CNC(=O)Nc3cc(C(C)(C)C)ccc3OC)C2)nc2ccccc21 [Compound 268, 1-((S)-2-amino-4-((R)-3-(1-(3-methoxypropyl)-1H-benzo[d]imidazol-2-yl)piperidin-1-yl)-4-oxobutyl)-3-(5-tert-butyl-2-methoxyphenyl)urea]
100 to 1000 nM	COCCCn1c([C@@H]2CCCN(C(=O)C[C@H](N)CNS(=O)(=O)c3ccc(Cl)c(Cl)c3)C2)nc2ccccc21 [Compound 305, N-((S)-2-amino-4-((R)-3-(1-(3-methoxypropyl)-1H-benzo[d]imidazol-2-yl)piperidin-1-yl)-4-oxobutyl)-3,4-dichlorobenzenesulfonamide]
< 100 nM	COCCCn1c([C@@H]2CCCN(C(=O)C[C@H](N)Cc3ccc(Oc4ccccc4)cc3)C2)nc2ccccc21 [Compound 238, (R)-3-amino-1((R)-3-(1-(3-methoxypropyl)-1H-benzo[d]imidazol-2-yl)piperidin-1-yl)-4-(4-phenoxyphenyl)butan-1-one]
100 to 1000 nM	COCCCn1c([C@@H]2CCCN(C(=O)C[C@H](N)Cc3ccc(Cl)cc3)C2)nc2ccccc21 [Compound 75, (R)-3-amino-4-(4-chlorophenyl)-1((R)-3-(1-(3-methoxypropyl)-1H-benzo[d]imidazol-2-yl)piperidin-1-yl)butan-1-one]
< 100 nM	COCCCn1c([C@@H]2CCCN(C(=O)C[C@H](N)Cc3ccc(-c4cnccc4OC)cc3)C2)nc2ccccc21 [Compound 162, (R)-3-Amino-1-((R)-3-(1-(3-methoxypropyl)-1H-benzo[d]imidazol-2-yl)piperidin-1-yl)-4-(4-(4-methoxypyridin-3-yl)phenyl)butan-1-one]
> 1000 nM	COc1cccc([C@@H](N)CC(=O)N2CCCC(c3nc4ccccc4[nH]3)C2)c1OC (stereo partly drawn) [Compound 28, (3S)-1-(3-(1H-benzo[d]imidazol-2-yl)piperidin-1-yl)-3-amino-3-(2,3-dimethoxyphenyl)propan-1-one]
